Laboratory results published in the supplement of paper PMC10307832.

Experiments:
Experiment in all cases: relative viability (nuclei count vs DMSO), 5 days (fraction); higher = more cells survive
Apatinib + Dasatinib = compound: N#CC1(c2ccc(NC(=O)c3cccnc3NCc3ccncc3)cc2)CCCC1 [Apatinib] + Cc1nc(Nc2ncc(C(=O)Nc3c(C)cccc3Cl)s2)cc(N2CCN(CCO)CC2)n1 [Dasatinib] (partner 0.075 µM)
Procedure, shortened: (§1)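 A single step with final 0.05% Triton X-100, 1% formaldehyde and 1 ug/ml Hoechst fixed the cells and stained nuclei 5 days after treatment. Lung cancer cell lines in 1536-well plates had been treated by pin tool the day after seeding with one drug alone or a fixed anchor-drug dose plus five library-drug doses (not always all listed) in √10 steps, and nuclei were counted on 4× images. Relative viability is the ratio of nuclei in treated wells to nuclei in vehicle wells, taken as the median of duplicate plates.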

Metformin + Olaparib = compound: CN(C)C(=N)NC(=N)N [Metformin] + O=C(c1cc(Cc2n[nH]c(=O)c3ccccc23)ccc1F)N1CCN(C(=O)C2CC2)CC1 [Olaparib] (partner 8 µM)
Procedure, shortened: as §1

Metformin + Bortezomib = compound: CN(C)C(=N)NC(=N)N [Metformin] + CC(C)C[C@H](NC(=O)[C@H](Cc1ccccc1)NC(=O)c1cnccn1)B(O)O [Bortezomib] (partner 0.002 µM)
Procedure, shortened: as §1

Metformin + Pictilisib = compound: CN(C)C(=N)NC(=N)N [Metformin] + CS(=O)(=O)N1CCN(Cc2cc3nc(-c4cccc5[nH]ncc45)nc(N4CCOCC4)c3s2)CC1 [Pictilisib] (partner 1 µM)
Procedure, shortened: as §1

| Cell Line | relative viability (Apatinib + Dasatinib; first compound 0.08 µM) | relative viability (Apatinib + Dasatinib; first compound 0.253 µM) | relative viability (Apatinib + Dasatinib; first compound 0.8 µM) | relative viability (Apatinib + Dasatinib; first compound 2.53 µM) | relative viability (Apatinib + Dasatinib; first compound 8 µM) | relative viability (Metformin + Olaparib; first compound 31.62 µM) | relative viability (Metformin + Olaparib; first compound 100 µM) | relative viability (Metformin + Olaparib; first compound 316.23 µM) | relative viability (Metformin + Olaparib; first compound 1000 µM) | relative viability (Metformin + Bortezomib; first compound 31.62 µM) | relative viability (Metformin + Bortezomib; first compound 100 µM) | relative viability (Metformin + Bortezomib; first compound 316.23 µM) | relative viability (Metformin + Bortezomib; first compound 1000 µM) | relative viability (Metformin + Pictilisib; first compound 31.62 µM) | relative viability (Metformin + Pictilisib; first compound 100 µM) | relative viability (Metformin + Pictilisib; first compound 316.23 µM) | relative viability (Metformin + Pictilisib; first compound 1000 µM) | relative viability (Metformin + Olaparib; first compound 10 µM) | relative viability (Metformin + Pictilisib; first compound 10 µM) | relative viability (Metformin + Bortezomib; first compound 10 µM) |
| --- | --- | --- | --- | --- | --- | --- | --- | --- | --- | --- | --- | --- | --- | --- | --- | --- | --- | --- | --- | --- |
| 201T | 0.617 | 0.511 | 0.525 | 0.502 | 0.423 | 0.802 | 0.815 | 0.775 | 0.822 | 1.15 | 1.1 | 1.06 | 1.12 | 0.709 | 0.701 | 0.688 | 0.685 |  |  |  |
| A549 |  |  |  |  |  | 0.308 | 0.324 | 0.269 | 0.368 |  |  |  |  | 0.517 | 0.553 | 0.464 | 0.0878 | 0.281 | 0.428 |  |
| A-427 | 0.706 | 0.66 | 0.798 | 0.671 | 0.575 | 0.773 | 0.708 | 0.625 | 0.447 | 1 | 0.94 | 0.963 | 0.901 | 0.896 | 0.713 | 0.68 | 0.763 | 0.645 | 0.79 | 0.997 |
| ABC-1 |  | 0.631 | 0.492 | 0.509 | 0.484 | 0.817 | 1.08 | 0.218 | 0.36 | 0.294 | 0.334 | 0.277 | 0.344 | 0.76 | 0.787 | 0.643 | 0.265 |  |  |  |
| BEN | 0.251 | 0.27 | 0.245 | 0.242 | 0.265 | 1.18 | 1.23 | 1.1 | 0.708 | 1.18 | 0.775 | 0.993 | 0.511 | 0.754 | 0.626 | 0.625 | 0.769 | 1.11 | 0.831 | 1.08 |
| CAL-12T | 0.523 | 0.602 | 0.38 | 0.262 | 0.234 | 0.661 | 0.61 | 0.611 | 0.744 | 0.935 | 1.02 | 1.06 | 1.15 | 0.511 | 0.527 | 0.415 | 0.518 | 0.612 | 0.423 | 1.16 |
| COR-L23 | 0.469 | 0.598 | 0.518 | 0.45 | 0.405 | 0.3 | 0.336 | 0.231 | 0.254 | 0.867 | 0.86 | 0.882 | 0.99 | 0.886 | 0.754 | 0.707 | 0.759 | 0.256 | 0.756 | 1.04 |
| COR-L 105 | 0.357 | 0.349 | 0.351 | 0.3 | 0.269 | 0.625 | 0.645 | 0.725 | 0.694 | 1.05 | 1.04 | 0.874 | 1.17 | 0.488 | 0.478 | 0.463 | 0.333 | 0.804 | 0.401 | 1.07 |
| Calu-6 |  |  |  |  |  | 0.416 | 0.421 | 0.48 | 0.467 | 0.957 | 1.06 | 0.817 | 0.66 | 0.886 | 0.769 | 0.531 | 0.413 | 0.459 | 0.733 | 0.842 |
| ChaGo-K-1 | 0.603 | 0.535 | 0.642 | 0.547 | 0.501 | 0.343 | 0.319 | 0.26 | 0.33 | 1.03 | 0.993 | 0.972 | 0.628 | 1.12 | 0.686 | 0.801 | 0.906 | 0.341 | 0.824 | 1.03 |
| EBC-1 |  |  |  |  |  | 0.733 | 0.73 | 0.728 | 0.721 | 0.666 | 0.618 | 0.541 | 0.59 | 0.444 | 0.467 | 0.306 | 0.313 | 0.68 | 0.508 | 0.699 |
| EKVX | 0.603 | 0.621 | 0.478 | 0.361 | 0.325 | 0.729 | 0.769 | 0.71 | 0.683 | 1.07 | 1.06 | 0.934 | 0.338 | 0.392 | 0.453 | 0.414 | 0.392 |  | 0.404 | 0.737 |
| EMC-BAC-2 | 0.32 | 0.428 | 0.349 | 0.282 | 0.293 | 0.394 | 0.401 | 0.339 | 0.361 | 1.11 | 1.04 | 1.11 | 1.09 | 0.536 | 0.528 | 0.523 | 0.523 | 0.381 | 0.475 | 1.09 |
| EPLC-272H | 0.382 |  | 0.358 | 0.355 | 0.335 | 0.769 | 1.01 | 0.922 | 0.877 | 0.91 | 0.907 | 0.909 | 1.22 | 0.314 | 0.364 | 0.305 | 0.302 | 0.748 | 0.362 | 0.837 |
| H3255 | 0.356 | 0.326 | 0.344 | 0.255 | 0.366 | 0.594 | 0.523 | 0.441 | 0.402 | 0.89 | 0.88 | 0.991 | 0.415 | 0.53 | 0.4 | 0.46 | 0.478 | 0.487 | 0.388 | 0.716 |
| HARA | 0.373 | 0.242 | 0.209 | 0.213 | 0.248 | 0.81 | 0.701 | 0.762 | 1.01 | 1.07 | 1.19 | 1.13 | 1.18 | 0.468 | 0.497 | 0.496 | 0.46 | 0.989 | 0.504 | 1.2 |
| HCC-15 | 0.686 | 0.626 | 0.605 | 0.574 | 0.63 | 0.615 | 0.47 | 0.571 | 0.585 | 1.08 | 1.04 | 0.932 | 1.09 | 0.789 | 0.746 | 0.75 | 0.823 | 0.532 | 0.625 | 0.617 |
| HCC-44 |  |  |  |  |  | 0.893 | 0.822 | 0.947 | 0.929 | 0.858 | 0.88 | 0.88 | 0.856 | 0.771 | 0.734 | 0.63 | 0.7 |  | 0.682 | 0.861 |
